Test: Tested for maxi-K channel opening property using two -electrode voltage clamp recording from Xenopus laevis oocytes at 20 uM
Type: functional, frog, Oocyte

Which Control current does the source give for `O=c1[nH]c2cc(C(F)(F)F)ccc2n1Cc1cc(Cl)ccc1O` here?
Its Control current is 133.4%.

Which Control current does the source give for `O=[N+]([O-])c1ccc2c(c1)nc(O)n2Cc1cc(Cl)ccc1O` here?
Its Control current is 163.1%.

With `Cc1ccc2c(c1)nc(O)n2Cc1cc(Cl)ccc1O` as the molecule, how does the Control current read?
The Control current was 101.9%.

With `Oc1ccc(Cl)cc1Cn1c(O)nc2ccncc21` as the molecule, how does the Control current read?
The Control current was 100.8%.

With `Oc1ccc(Cl)cc1Cn1c(O)nc2cc(F)ccc21` as the molecule, how does the Control current read?
Its Control current is 105.9%.

Which Control current does the source give for `COc1ccc(Cl)cc1Cn1c(O)nc2ccccc21` here?
The Control current was 104.2%.

For `Oc1ccc(Cl)cc1Cn1c(O)nc2cc(I)ccc21`, which Control current is on record?
Its Control current is 120.2%.

For `Oc1ccc(Cl)cc1Cn1c(O)nc2ccc(Cl)cc21`, which Control current is on record?
The Control current was 116.3%.

Which Control current does the source give for `Oc1ccc(Cl)cc1Cn1c(O)nc2ccccc21` here?
Its Control current is 110.9%.

For `Oc1ccc(Cl)cc1Cn1c(O)nc2cnccc21`, which Control current is on record?
Its Control current is 107.2%.

For `O=c1[nH]c2cc(C(F)(F)F)ccc2n1-c1cc(Cl)ccc1O`, which Control current is on record?
Its Control current is 131.8%.

With `Oc1ccc2c(c1)nc(O)n2Cc1cc(Cl)ccc1O` as the molecule, how does the Control current read?
The Control current was 106%.

With `Oc1ccc(Cl)cc1Cn1c(O)nc2ccc(Br)cc21` as the molecule, how does the Control current read?
The Control current was 107.9%.

With `Oc1ccc(Cl)cc1Cn1c(O)nc2cc(Cl)cc(Cl)c21` as the molecule, how does the Control current read?
The Control current was 118.3%.

Which Control current does the source give for `Oc1ccc(Cl)cc1Cn1c(O)nc2cc(Cl)c(Cl)cc21` here?
Its Control current is 145.8%.

With `Oc1ccc(Cl)cc1Cn1c(O)nc2cc(Br)ccc21` as the molecule, how does the Control current read?
Its Control current is 135.7%.

With `Oc1ccc(Cl)cc1Cn1c(O)nc2cc(Cl)ccc21` as the molecule, how does the Control current read?
Its Control current is 150.1%.

Which Control current does the source give for `Oc1ccccc1Cn1c(O)nc2cc(C(F)(F)F)ccc21` here?
Its Control current is 126%.

Which Control current does the source give for `Oc1ccccc1CCn1c(O)nc2cc(C(F)(F)F)ccc21` here?
Its Control current is 119.5%.

From ChEMBL document CHEMBL1129119, “N-Benzylated benzimidazol-2-one derivatives: activators of large-conductance Ca2+-dependent K+ channels” (1996)
